SMILES strings stand for the structures.

Data on five compounds can be found in US7652153B2, “Caspase inhibitors and uses thereof” (Vertex Pharmaceuticals Incorporated, priority 2004, dated 2010).

The target of one assay is caspase-8 (Homo sapiens, UniProt Q14790). The experiment in a line: Caspase-8 enzyme inhibition (Ki, method of Margolin et al.). It is filed as biochemical. The following applies: Ac-DEVD-pNA substrate 80 μM, 37° C., pH 7.5; read-out: Ki C8. A digest of the protocol: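 Caspase (0.5-40 nM active, by active-site titration) preincubated with inhibitor 15 min at 37° C in 10 mM Tris pH 7.5, 1 mM DTT, 0.1% CHAPS. Reaction started with Ac-DEVD-pNA (80 μM final), rate followed by absorbance at 405 nm; Ki from Morrison tight-binding fit for competitive inhibitors.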
Chain of caspase-8 (Q14790 217-374 limits assumed, species assumed): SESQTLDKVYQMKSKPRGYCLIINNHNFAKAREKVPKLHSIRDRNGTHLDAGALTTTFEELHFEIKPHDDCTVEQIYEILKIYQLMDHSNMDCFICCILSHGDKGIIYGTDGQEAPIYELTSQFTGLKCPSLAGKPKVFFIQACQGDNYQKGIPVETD
Chain of caspase-8 (Q14790 385-479 limits assumed, species assumed): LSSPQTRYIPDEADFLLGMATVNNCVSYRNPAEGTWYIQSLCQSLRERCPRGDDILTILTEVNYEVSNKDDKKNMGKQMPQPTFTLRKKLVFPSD

For the next assay, the target named is T1, caspase-1 (Homo sapiens, UniProt P29466).
T1 sequence (P29466 120-297 limits assumed): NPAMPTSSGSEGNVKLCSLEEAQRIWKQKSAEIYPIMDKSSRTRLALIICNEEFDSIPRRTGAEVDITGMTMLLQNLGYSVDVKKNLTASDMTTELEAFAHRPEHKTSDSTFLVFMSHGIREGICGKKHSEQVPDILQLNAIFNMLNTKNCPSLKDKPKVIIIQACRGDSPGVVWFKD
T1 sequence (P29466 317-404 limits assumed): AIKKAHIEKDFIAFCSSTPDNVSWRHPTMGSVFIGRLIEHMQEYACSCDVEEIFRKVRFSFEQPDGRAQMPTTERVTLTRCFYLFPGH
As to the kind of experiment: Caspase-1 enzyme inhibition (Ki, method of Margolin et al.). The following applies: Suc-YVAD-pNA substrate 80 μM, 37° C., pH 7.5; read-out: Ki C1. It is filed as biochemical. A digest of the protocol:
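Enzyme (0.5-40 nM active, by active-site titration) preincubated 15 min at 37° C with inhibitor in 10 mM Tris pH 7.5, 1 mM DTT, 0.1% CHAPS. Reaction started with Suc-YVAD-pNA (80 μM final), rate followed by absorbance at 405 nm at 37° C. Ki from Morrison tight-binding fit for competitive inhibitors.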

In the case of `Cc1ccncc1C(=O)N[C@H](C(=O)N1CCC[C@H]1C(=O)N[C@H](C=O)CC(=O)O)C(C)C` [II-16, (S,S,S)-(3S)-[(1-{3-Methyl-(2S)-[(4-methyl-pyridine-3-carbonyl)-amino]-butyryl}-pyrrolidine-(2S)-carbonyl)-amino]-4-oxo-butyric acid], the inhibition constant (Ki) (as a rule, a dissociation constant, usually derived from enzyme kinetics or from competition with a known ligand) at caspase-8 was 21 to 30 nM; at caspase-1, less than 10 nM.
Consider `CC(C)[C@H](NC(=O)c1ccccc1OC(F)(F)F)C(=O)N1CCC[C@H]1C(=O)N[C@H](C=O)CC(=O)O` [II-5, (S,S,S)-(3S)-({1-[3-Methyl-(2S)-(2-trifluoromethoxy-benzoylamino)-butyryl]-pyrrolidine-(2S)-carbonyl}-amino)-4-oxo-butyric acid], for which the Ki at caspase-8 was 10 to 20 nM; on caspase-1, less than 10 nM.
As to `CC(=O)Nc1ccc(C(=O)N[C@H](C(=O)N2CCC[C@H]2C(=O)N[C@H](C=O)CC(=O)O)C2CCCCC2)c(Cl)c1` [II-50, (S,S,S)-(3S)-({1-[(2S)-(2-chloro-4-acetamido-benzoylamino)-3-cyclohexyl]-pyrrolidine-(2S)-carbonyl}-amino)-4-oxo-butyric acid], the figures for the Ki at caspase-8 and on caspase-1 were 21 to 30 nM and less than 10 nM, respectively.
As for `Cc1c(N)cccc1C(=O)N[C@H](C(=O)N1CCC[C@H]1C(=O)N[C@H](C=O)CC(=O)O)C(C)C` [II-7, (S,S,S)-(3S)-({1-[(2S)-(3-Amino-2-methyl-benzoylamino)-3-methyl-butyryl]-pyrrolidine-(2S)-carbonyl}-amino)-4-oxo-butyric acid], the Ki at caspase-8 was 10 to 20 nM; on caspase-1, less than 10 nM.
`CC(=O)Nc1ccc(C(=O)N[C@H](C(=O)N2CCC[C@H]2C(=O)N[C@H](C=O)CC(=O)O)C(C)(C)C)c(F)c1` [II-44, (S,S,S)-(3S)-({1-[(2S)-(2-fluoro-4-acetamido-benzoylamino)-3,3-dimethyl-butyryl]-pyrrolidine-(2S)-carbonyl}-amino)-4-oxo-butyric acid]: the Ki at caspase-8 and at caspase-1 was less than 10 nM in each case.
